Results on 15 compounds are retold here after patent US20100261719A1, “CHEMICAL COMPOUNDS” (priority 2007, published 2010).

Structures are written as SMILES.

The target in the first assay is Escherichia coli DNA gyrase A/B tetramer (Escherichia coli, UniProt P0AES4+P0AES6). Kind of assay: DNA gyrase supercoiling activity fluorescence polarisation assay. The assay is classed as biochemical.
Sequence of Escherichia coli DNA gyrase A/B tetramer (P0AES4 whole entry, one chain of several): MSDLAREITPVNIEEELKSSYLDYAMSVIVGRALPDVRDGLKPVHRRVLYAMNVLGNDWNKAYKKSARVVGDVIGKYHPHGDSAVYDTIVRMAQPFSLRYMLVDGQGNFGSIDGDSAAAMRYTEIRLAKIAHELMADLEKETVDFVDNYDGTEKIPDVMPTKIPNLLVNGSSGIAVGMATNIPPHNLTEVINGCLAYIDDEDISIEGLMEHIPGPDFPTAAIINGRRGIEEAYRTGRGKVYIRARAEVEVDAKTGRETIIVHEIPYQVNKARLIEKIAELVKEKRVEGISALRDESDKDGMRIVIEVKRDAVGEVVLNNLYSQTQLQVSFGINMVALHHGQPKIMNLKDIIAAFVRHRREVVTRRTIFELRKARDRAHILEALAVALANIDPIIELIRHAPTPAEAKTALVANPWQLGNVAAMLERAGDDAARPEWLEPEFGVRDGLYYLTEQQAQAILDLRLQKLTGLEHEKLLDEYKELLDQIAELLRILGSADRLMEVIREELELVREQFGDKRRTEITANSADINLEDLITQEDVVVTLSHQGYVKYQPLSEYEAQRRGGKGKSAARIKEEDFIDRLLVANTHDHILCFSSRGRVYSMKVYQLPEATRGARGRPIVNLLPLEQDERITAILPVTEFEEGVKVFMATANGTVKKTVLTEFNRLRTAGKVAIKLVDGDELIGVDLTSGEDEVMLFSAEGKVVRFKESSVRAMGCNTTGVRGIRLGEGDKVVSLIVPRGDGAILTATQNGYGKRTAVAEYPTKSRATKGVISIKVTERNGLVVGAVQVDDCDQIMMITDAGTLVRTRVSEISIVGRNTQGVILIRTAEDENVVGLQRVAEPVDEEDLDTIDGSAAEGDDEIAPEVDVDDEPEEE
Conditions: not given
Here is the method: In a black, 384-well polystyrene assay plate, 30 microliters/well of 5 nM Escherichia coli DNA gyrase A/B tetramer and 130 micrograms/ml of topologically relaxed plasmid containing the triplex-forming sequence […] in an assay buffer consisting of 35 mM Tris-HCl (pH 7.5), 24 mM KCl, 4 mM MgCl2, 2 mM dithiothreitol, 1.8 mM spermidine, 5% (v/v) glycerol, 200 nM bovine serum albumin, 0.8% dimethylsulfoxide, and 0.3 mM ATP may be incubated at ambient temperature for (typically 30 minutes) in the absence or presence of 5-10 different concentrations of test compound. The supercoiling reactions may be quenched by the addition of 10 microliters/well of 40 nM oligodeoxynucleotide probe in 3× triplex-forming buffer consisting of 150 mM NaCl, and 150 mM sodium acetate at pH 3.5. The oligodeoxynucleotide probe may be 5′-BODIPY-FL-labeled TTCTTCTTC. After 60 minutes, the fluorescence anisotropy of the BODIPY-FL may be measured in a Tecan Ultra plate reader, using 485 nm excitation and 535 nm emission filters equipped with polarizers. The IC50 may be determined by nonliner regression using two control reactions. The first contains no test compound but 0.8% DMSO (100% activity) while the second control reaction contains 5 uM Ciprofloxacin and 0.8% DMSO (0% activity).
When tested in an in-vitro assay based on the DNA gyrase supercoiling activity fluorescence polarisation assay described above, the E. coli DNA gyrase supercoiling IC50 assay inhibitory activity of the following Examples was measured at the indicated IC50.
As a reminder, the IC50 is the midpoint of a concentration-inhibition curve. With `C/C(=N\NC(=O)Nc1ccccc1)c1cc2c(c(F)c1F)N1C[C@@H](C)O[C@@H](C)[C@@H]1C1(C2)C(=O)NC(=O)NC1=O` (relative stereo) [Example 51, (2E)-2-{1-[(2R,4S,4aS)-rel-9,10-Difluoro-2,4-dimethyl-2′,4′,6′-trioxo-1,1′,2,3′,4,4′,4a,6′-octahydro-2′H,6H-spiro[1,4-oxazino[4,3-a]quinoline-5,5′-pyrimidin]-8-yl]ethylidene}-N-phenylhydrazinecarboxamide], half-maximal inhibition (IC50) required 5500 nM.
Take `C[C@@H]1CN2c3c(cc(C#Cc4cccnc4)c(F)c3F)CC3(C(=O)NC(=O)NC3=O)[C@H]2[C@H](C)O1` (relative stereo) [Example 18, (2R,4S,4aS)-rel-9,10-Difluoro-2,4-dimethyl-8-(pyridin-3-ylethynyl)-1,2,4,4a-tetrahydro-2′H,6H-spiro[1,4-oxazino[4,3-a]quinoline-5,5′-pyrimidine]-2′,4′,6′(1′H,3′H)-trione]: 500 nM corresponded to half-maximal inhibition (IC50).
Same read-out and setting: as for `C[C@H]1CN2c3c(cc(C#Cc4c[nH]cn4)c(F)c3F)CC3(C(=O)NC(=O)NC3=O)[C@@H]2[C@@H](C)O1` (relative stereo) [Example 15, (2S,4R,4aR)-rel-9,10-Difluoro-8-(1H-imidazol-4-ylethynyl)-2,4-dimethyl-1,2,4,4a-tetrahydro-2′H,6H-spiro[1,4-oxazino[4,3-a]quinoline-5,5′-pyrimidine]-2′,4′,6′(1′H,3′H)-trione], the figure is 700 nM; as for `COCC(=O)N/N=C(\C)c1cc2c(c(F)c1F)N1C[C@@H](C)O[C@@H](C)[C@@H]1C1(C2)C(=O)NC(=O)NC1=O` (relative stereo) [Example 55, N′-{(1E)-1-[(2R,4S,4aS)-rel-9,10-Difluoro-2,4-dimethyl-2′,4′,6′-trioxo-1,1′,2,3′,4,4′,4a,6′-octahydro-2′H,6H-spiro[1,4-oxazino[4,3-a]quinoline-5,5′-pyrimidin]-8-yl]ethylidene}-2-methoxyacetohydrazide], 7590 nM; as for `C/C(=N\NC(N)=O)c1cc2c(c(F)c1F)N1C[C@@H](C)O[C@@H](C)[C@@H]1C1(C2)C(=O)NC(=O)NC1=O` (relative stereo) [Example 54, (2E)-2-{1-[(2R,4S,4aS)-rel-9,10-Difluoro-2,4-dimethyl-2′,4′,6′-trioxo-1,1′,2,3′,4,4′,4a,6′-octahydro-2′H,6H-spiro[1,4-oxazino[4,3-a]quinoline-5,5′-pyrimidin]-8-yl]ethylidene}hydrazinecarboxamide], 2300 nM.
The same measure, in the same setting: as for `C[C@@H]1CN2c3cc(F)c(C#Cc4ncccn4)cc3CC3(C(=O)NC(=O)NC3=O)[C@H]2[C@H](C)O1` (relative stereo) [Example 33, (2R,4S,4aS)-rel-9-Fluoro-2,4-dimethyl-8-(pyrimidin-2-ylethynyl)-1,2,4,4a-tetrahydro-2′H,6H-spiro[1,4-oxazino[4,3-a]quinoline-5,5′-pyrimidine]-2′,4′,6′(1′H,3′H)-trione], the figure is 1180 nM; as for `C[C@H]1CN2c3c(cc(C#Cc4cncs4)c(F)c3F)CC3(C(=O)NC(=O)NC3=O)[C@@H]2[C@@H](C)O1` (relative stereo) [Example 9, (2S,4R,4aR)-rel-9,10-Difluoro-2,4-dimethyl-8-(1,3-thiazol-5-ylethynyl)-1,2,4,4a-tetrahydro-2′H,6H-spiro[1,4-oxazino[4,3-a]quinoline-5,5′-pyrimidine]-2′,4′,6′(1′H,3′H)-trione], 700 nM; as for `C[C@@H]1CN2c3c(cc(C(=O)NC4CCNCC4)c(F)c3F)CC3(C(=O)NC(=O)NC3=O)[C@H]2[C@H](C)O1` (relative stereo) [Example 71, (2R,4S,4aS)-rel-9,10-Difluoro-2,4-dimethyl-2′,4′,6′-trioxo-N-(piperidin-4-yl)-1,1′,2,3′,4,4′,4a,6′-octahydro-2′H,6H-spiro[1,4-oxazino[4,3-a]quinoline-5 ,5′-pyrimidine]-8-carboxamide], 5970 nM.
In turn, `C[C@H]1CN2c3c(cc(C#Cc4ncc[nH]4)c(F)c3F)CC3(C(=O)NC(=O)NC3=O)[C@@H]2[C@@H](C)O1` (relative stereo) [Example 16, (2S,4R,4aR)-rel-9,10-Difluoro-8-(1H-imidazol-2-ylethynyl)-2,4-dimethyl-1,2,4,4a-tetrahydro-2′H,6H-spiro[1,4-oxazino[4,3-a]quinoline-5,5′-pyrimidine]-2′,4′,6′(1′H,3′H)-trione] yielded an IC50 of 690 nM.
Still for that read-out and setting: as for `C/C(=N\NC(=O)OC(C)(C)C)c1cc2c(c(F)c1F)N1C[C@@H](C)O[C@@H](C)[C@@H]1C1(C2)C(=O)NC(=O)NC1=O` (relative stereo) [Example 50, tert-Butyl (2E)-2-{1-[(2R,4S,4aS)-rel-9,10-difluoro-2,4-dimethyl-2′,4′,6′-trioxo-1,1′,2,3′,4,4′,4a,6′-octahydro-2′H,6H-spiro[1,4-oxazino[4,3-a]quinoline-5,5′-pyrimidin]-8-yl]ethylidene}hydrazinecarboxylate], the figure is 2360 nM; as for `C[C@@H]1CN2c3ccc(NC(=O)N4CCCCC4)cc3CC3(C(=O)NC(=O)NC3=O)[C@H]2[C@H](C)O1` (relative stereo) [Example 74, N-[(2R,4S,4aS)-rel-2,4-Dimethyl-2′,4′,6′-trioxo-1,1′,2,3′,4,4′,4a,6′-octahydro-2′H,6H-spiro[1,4-oxazino[4,3-a]quinoline-5,5′-pyrimidin]-8-yl]piperidine-1-carboxamide], 3510 nM; as for `C/C(=N\Nc1ccccn1)c1cc2c(c(F)c1F)N1C[C@@H](C)O[C@@H](C)[C@@H]1C1(C2)C(=O)NC(=O)NC1=O` (relative stereo) [Example 57, (2R,4S,4aS)-rel-9,10-Difluoro-2,4-dimethyl-8-{(1E)-1-[2-(pyridin-2-yl)hydrazinylidene]ethyl}-1,2,4,4a-tetrahydro-2′H,6H-spiro[1,4-oxazino[4,3-a]quinoline-5,5′-pyrimidine]-2′,4′,6′(1′H,3′H)-trione], 850 nM.
The same measure, in the same setting: for `C[C@@H]1CN2c3cc(F)c(C#Cc4nc5ccccc5o4)cc3CC3(C(=O)NC(=O)NC3=O)[C@H]2[C@H](C)O1` (relative stereo) [Example 35, (2R,4S,4aS)-rel-8-(1,3-Benzoxazol-2-ylethynyl)-9-fluoro-2,4-dimethyl-1,2,4,4a-tetrahydro-2′H,6H-spiro[1,4-oxazino[4,3-a]quinoline-5,5′-pyrimidine]-2′,4′,6′(1′H,3′H)-trione] the value was 1480 nM; for `Cc1nnc(C)n1/N=C/c1cc2c(c(F)c1F)N1C[C@@H](C)O[C@@H](C)[C@@H]1C1(C2)C(=O)NC(=O)NC1=O` (relative stereo) [Example 47, (2R,4S,4aS)-rel-8-{(E)-[(3,5-Dimethyl-4H-1,2,4-triazol-4-yl)imino]methyl}-9,10-difluoro-2,4-dimethyl-1,2,4,4a-tetrahydro-2′H,6H-spiro[1,4-oxazino[4,3-a]quinoline-5,5′-pyrimidine]-2′,4′,6′(1′H,3′H)-trione], 3670 nM.

Staying with this assay, now noted: 5 nM enzyme, 0.3 mM ATP, relaxed plasmid, fluorescence anisotropy readout; read-out: E. coli DNA gyrase supercoiling IC50.
Take `Cc1nnc(C#Cc2cc(F)c3c(c2)C(=O)C2(CNC(=O)NC2=O)[C@H]2[C@H](C)O[C@H](C)CN32)s1` (relative stereo) [Example 37, (2R,4S,4aS)-rel-10-Fluoro-2,4-dimethyl-8-[(5-methyl-1,3,4-thiadiazol-2-yl)ethynyl]-1,2,4,4a-tetrahydro-2′H,6H-spiro[1,4-oxazino[4,3-a]quinoline-5,5′-pyrimidine]-2′,4′,6(1′H,3′H)-trione]: the IC50 was 940 nM.
